Usually IC50 stands for the concentration that gives 50% inhibition. Read a high IC50 as weaker potency.

One test addresses alphavbeta1 (Homo sapiens, UniProt G3HZ55+P06756). Nature of the test: Cell adhesion assay, alphavbeta1-mediated (CHO cells transfected with human alphav adhering to the latency associated peptide of TGF-beta). The class given is cell-based. As to conditions: adhesion to LAP of TGF-beta. As for the experimental part: The blockade of integrin alpha 5 beta 1 provides a novel target for the treatment of asthma. […] The intracellular actin-myosin cross-bridging pathway serves as a useful target. Modulating the interactions of the cell and the extracellular matrix impairs the ability of the smooth muscle to transmit tension effectively. The blockade of integrin alpha 5 beta 1 was tested in vitro with human cell lines as well as in vivo with a mouse model of airway hyperresponsiveness. Novel compounds as described herein, and identified in Table 1, have been synthesized and tested in vitro for their ability to inhibit cell adhesion mediated by either alpha5beta1 (adhesion of the colon carcinoma cell line SW480 to fibronectin, a response that is entirely dependent on binding of alpha5beta1 to fibronectin), or alphavbeta1 (adhesion of Chinese Hamster Ovary cells transfected with human alphav to the latency associated peptide of transforming growth factor beta, a response that is entirely dependent on binding of alphavbeta1 to LAP).

For the next test, the target named is alpha5beta1 (Homo sapiens (Human), UniProt P05556+P08648). Description: Cell adhesion assay, alpha5beta1-mediated (colon carcinoma cell line SW480 adhering to fibronectin). The test is classed as cell-based. As to conditions: SW480 cells. As for the experimental part:
The blockade of integrin alpha 5 beta 1 was tested in vitro with human cell lines as well as in vivo with a mouse model of airway hyperresponsiveness.

alphavbeta1, sequence (G3HZ55 21-798 limits assumed): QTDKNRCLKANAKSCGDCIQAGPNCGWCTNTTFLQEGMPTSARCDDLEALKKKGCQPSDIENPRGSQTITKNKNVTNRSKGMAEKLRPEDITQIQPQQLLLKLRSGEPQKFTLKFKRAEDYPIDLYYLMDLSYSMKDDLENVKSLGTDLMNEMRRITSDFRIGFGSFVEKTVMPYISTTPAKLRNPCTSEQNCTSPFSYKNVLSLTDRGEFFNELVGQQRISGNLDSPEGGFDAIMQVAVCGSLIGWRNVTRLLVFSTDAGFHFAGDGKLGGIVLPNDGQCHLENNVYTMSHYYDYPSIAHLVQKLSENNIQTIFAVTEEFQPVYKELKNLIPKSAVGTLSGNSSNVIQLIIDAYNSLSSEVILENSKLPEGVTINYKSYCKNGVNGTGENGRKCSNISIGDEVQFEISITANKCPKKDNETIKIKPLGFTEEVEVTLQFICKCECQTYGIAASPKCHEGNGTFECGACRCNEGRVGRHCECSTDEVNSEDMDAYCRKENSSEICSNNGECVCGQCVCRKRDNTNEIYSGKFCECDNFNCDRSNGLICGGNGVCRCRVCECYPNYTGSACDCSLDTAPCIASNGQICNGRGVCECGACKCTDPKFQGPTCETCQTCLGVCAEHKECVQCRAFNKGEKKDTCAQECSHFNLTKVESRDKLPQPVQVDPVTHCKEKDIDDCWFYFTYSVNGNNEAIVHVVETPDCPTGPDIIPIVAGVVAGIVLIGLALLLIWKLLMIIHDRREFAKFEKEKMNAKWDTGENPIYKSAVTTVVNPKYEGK
alphavbeta1, sequence (P06756 31-889 limits assumed): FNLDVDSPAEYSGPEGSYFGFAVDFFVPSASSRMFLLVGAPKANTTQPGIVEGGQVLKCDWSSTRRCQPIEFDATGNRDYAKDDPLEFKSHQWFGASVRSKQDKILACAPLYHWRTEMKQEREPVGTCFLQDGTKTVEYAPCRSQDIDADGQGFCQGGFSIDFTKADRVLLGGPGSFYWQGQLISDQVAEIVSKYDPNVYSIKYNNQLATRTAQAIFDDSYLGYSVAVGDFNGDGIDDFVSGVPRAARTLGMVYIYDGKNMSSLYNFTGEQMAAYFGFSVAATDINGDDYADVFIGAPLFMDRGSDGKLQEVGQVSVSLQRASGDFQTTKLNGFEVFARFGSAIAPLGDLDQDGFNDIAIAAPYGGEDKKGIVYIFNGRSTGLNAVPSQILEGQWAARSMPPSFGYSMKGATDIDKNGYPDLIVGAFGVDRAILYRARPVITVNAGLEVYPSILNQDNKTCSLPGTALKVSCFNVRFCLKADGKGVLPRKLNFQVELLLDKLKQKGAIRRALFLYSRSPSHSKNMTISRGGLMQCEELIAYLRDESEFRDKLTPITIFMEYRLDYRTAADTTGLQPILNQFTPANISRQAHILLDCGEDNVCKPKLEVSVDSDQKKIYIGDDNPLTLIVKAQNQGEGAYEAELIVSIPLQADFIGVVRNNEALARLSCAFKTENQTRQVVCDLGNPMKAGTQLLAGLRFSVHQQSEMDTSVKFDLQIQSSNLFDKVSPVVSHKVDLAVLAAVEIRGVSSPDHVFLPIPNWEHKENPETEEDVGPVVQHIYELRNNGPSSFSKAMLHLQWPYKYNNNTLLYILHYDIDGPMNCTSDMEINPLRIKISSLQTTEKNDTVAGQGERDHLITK
alphavbeta1, sequence (P06756 891-1048 limits assumed): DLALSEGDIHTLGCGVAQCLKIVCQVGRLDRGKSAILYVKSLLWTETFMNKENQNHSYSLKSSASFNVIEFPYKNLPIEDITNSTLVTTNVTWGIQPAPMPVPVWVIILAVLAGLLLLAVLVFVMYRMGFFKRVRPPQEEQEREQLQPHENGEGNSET
alpha5beta1, sequence (P08648 42-894): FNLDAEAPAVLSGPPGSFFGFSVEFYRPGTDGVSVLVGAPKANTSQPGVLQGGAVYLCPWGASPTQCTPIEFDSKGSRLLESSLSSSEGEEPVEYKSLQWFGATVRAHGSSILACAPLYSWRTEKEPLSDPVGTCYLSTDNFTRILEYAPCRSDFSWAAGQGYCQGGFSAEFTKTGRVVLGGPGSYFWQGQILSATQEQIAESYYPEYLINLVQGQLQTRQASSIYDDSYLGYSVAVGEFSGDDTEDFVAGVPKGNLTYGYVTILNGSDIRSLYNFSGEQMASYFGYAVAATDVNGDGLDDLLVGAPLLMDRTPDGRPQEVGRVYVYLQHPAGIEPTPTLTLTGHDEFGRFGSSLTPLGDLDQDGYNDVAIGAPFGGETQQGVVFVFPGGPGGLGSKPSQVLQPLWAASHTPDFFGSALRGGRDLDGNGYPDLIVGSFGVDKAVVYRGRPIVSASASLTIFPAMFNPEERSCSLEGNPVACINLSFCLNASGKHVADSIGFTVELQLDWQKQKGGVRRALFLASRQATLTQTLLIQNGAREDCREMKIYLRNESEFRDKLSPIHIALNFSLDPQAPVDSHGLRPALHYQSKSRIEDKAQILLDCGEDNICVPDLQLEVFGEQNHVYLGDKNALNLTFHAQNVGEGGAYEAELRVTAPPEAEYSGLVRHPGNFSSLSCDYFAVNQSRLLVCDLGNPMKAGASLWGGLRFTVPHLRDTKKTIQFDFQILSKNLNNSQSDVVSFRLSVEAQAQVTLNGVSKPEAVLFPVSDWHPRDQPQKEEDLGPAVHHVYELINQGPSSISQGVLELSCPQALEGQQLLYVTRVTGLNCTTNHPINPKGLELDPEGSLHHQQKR
alpha5beta1, sequence (P08648 895-1049): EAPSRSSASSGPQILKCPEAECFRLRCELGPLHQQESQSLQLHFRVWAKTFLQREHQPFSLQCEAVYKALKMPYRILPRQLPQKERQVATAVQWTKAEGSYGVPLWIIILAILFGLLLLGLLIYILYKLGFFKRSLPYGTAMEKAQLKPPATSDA
alpha5beta1, sequence (P05556 21-798): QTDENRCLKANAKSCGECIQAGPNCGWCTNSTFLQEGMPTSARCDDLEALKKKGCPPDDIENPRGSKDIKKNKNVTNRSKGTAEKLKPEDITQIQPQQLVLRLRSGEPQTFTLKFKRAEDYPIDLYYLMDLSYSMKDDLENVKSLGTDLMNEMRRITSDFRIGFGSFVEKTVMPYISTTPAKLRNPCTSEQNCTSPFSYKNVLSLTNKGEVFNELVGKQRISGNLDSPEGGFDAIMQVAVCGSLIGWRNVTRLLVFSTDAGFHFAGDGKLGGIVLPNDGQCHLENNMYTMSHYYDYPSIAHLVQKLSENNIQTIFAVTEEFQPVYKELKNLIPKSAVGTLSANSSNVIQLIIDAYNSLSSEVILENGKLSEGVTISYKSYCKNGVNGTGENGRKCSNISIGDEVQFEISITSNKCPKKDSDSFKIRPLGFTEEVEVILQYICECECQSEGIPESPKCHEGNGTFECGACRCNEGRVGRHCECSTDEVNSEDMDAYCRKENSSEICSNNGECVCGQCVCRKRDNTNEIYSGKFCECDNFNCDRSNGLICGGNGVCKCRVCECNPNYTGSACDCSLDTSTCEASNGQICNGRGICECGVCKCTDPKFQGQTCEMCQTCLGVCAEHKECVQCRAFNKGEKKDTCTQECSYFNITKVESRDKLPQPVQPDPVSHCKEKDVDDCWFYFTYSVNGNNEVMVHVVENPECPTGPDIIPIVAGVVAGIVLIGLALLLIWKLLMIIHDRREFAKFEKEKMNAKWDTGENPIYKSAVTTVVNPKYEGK

As to `N=C(N)NCCCCC(=O)N[C@@H](CCCCNC(=S)Nc1ccc(C2c3ccc(O)cc3OC3=CC(=O)C=CC32)c(C(=O)O)c1)C(=O)NC[C@H](NC(=O)[C@@H]1CCCN1S(=O)(=O)c1ccccc1)C(=O)O` (stereo partly drawn) [HIJ-1216, 5-(3-((S)-6-(((S)-2-carboxy-2-((S)-1-(phenylsulfonyl)pyrrolidine-2-carboxamido)ethyl)amino)-5-(5-guanidinopentanamido)-6-oxohexyl)thioureido)-2-(6-hydroxy-3-oxo-9,9a-dihydro-3H-xanthen-9-yl)benzoic acid], the IC50 at alphavbeta1 and against alpha5beta1 was > 10000 nM in each case.

Take `N=C(N)NCCCCCC(=O)NC[C@H](NC(=O)[C@@H]1CCCN1S(=O)(=O)c1ccccc1)C(=O)O` [HIJ-1083, (S)-3-(6-guanidinohexanamido)-2-((S)-1-(phenylsulfonyl)pyrrolidine-2-carboxamido)propanoic acid]: the IC50 against alphavbeta1 and against alpha5beta1 was 100 to 10000 nM throughout.

For `O=C(CNC(=O)c1cccc(Nc2ccccn2)c1)NC[C@H](NC(=O)[C@@H]1CCCN1S(=O)(=O)c1ccccc1)C(=O)O` [HIJ-1093], the IC50 against alphavbeta1 and at alpha5beta1 was 100 to 10000 nM in each case.

`N=C(N)Nc1cc(NC(=O)CCCNC(=O)C23CC4CC(CC(C4)C2)C3)cc(C(=O)NCC(=O)NC[C@H](NC(=O)[C@@H]2CCCN2S(=O)(=O)c2ccccc2)C(=O)O)c1` [HIJ-1483, (2S)-3-(2-(3-(4-((1s,3s)-adamantane-1-carboxamido)butanamido)-5-guanidinobenzamido)acetamido)-2-((S)-1-(phenylsulfonyl)pyrrolidine-2-carboxamido)propanoic acid]: the IC50 against alpha5beta1 was < 100 nM.

With `N=C(N)Nc1cccc(C(=O)NCC(=O)NC[C@H](NC(=O)[C@@H]2CCCN2S(=O)(=O)c2ccccc2)C(=O)O)c1` [HIJ-1094, (S)-3-(2-(3-guanidinobenzamido)acetamido)-2-((S)-1-(phenylsulfonyl)pyrrolidine-2-carboxamido)propanoic acid], the IC50 against alphavbeta1 and against alpha5beta1 was < 100 nM in each case.

Take `N=C(N)NCCCCCCNC(=O)NC[C@H](NC(=O)[C@@H]1CCCN1S(=O)(=O)c1ccccc1)C(=O)O` [HIJ-1018, (S)-3-(3-(6-guanidinohexyl)ureido)-2-((S)-1-(phenylsulfonyl)pyrrolidine-2-carboxamido)propanoic acid]: the results for the IC50 on alphavbeta1 and at alpha5beta1 were < 100 nM and 100 to 10000 nM, respectively.

Turning to `N=C(N)Nc1cccc(C(=O)NNC(=O)NC[C@H](NC(=O)[C@@H]2CCCN2S(=O)(=O)c2ccccc2)C(=O)O)c1` [HIJ-1099, (S)-3-(2-(3-guanidinobenzoyl)hydrazine-1-carboxamido)-2-((S)-1-(phenylsulfonyl)pyrrolidine-2-carboxamido)propanoic acid], the IC50 was 100 to 10000 nM on alphavbeta1 and < 100 nM against alpha5beta1.

Regarding `N=C(N)NCCCCCNC(=O)NC[C@H](NC(=O)[C@@H]1CCCN1S(=O)(=O)c1ccccc1)C(=O)O` [HIJ-1017, (S)-3-(3-(5-guanidinopentyl)ureido)-2-((S)-1-(phenylsulfonyl)pyrrolidine-2-carboxamido)propanoic acid], the IC50 is < 100 nM at alphavbeta1 and 100 to 10000 nM against alpha5beta1.

On to `N=C(N)NCCCCNC(=O)NC[C@H](NC(=O)[C@@H]1CCCN1S(=O)(=O)c1ccccc1)C(=O)O` [HIJ-1016, (S)-3-(3-(4-guanidinobutyl)ureido)-2-((S)-1-(phenylsulfonyl)pyrrolidine-2-carboxamido)propanoic acid], for which the IC50 at alphavbeta1 was < 100 nM; on alpha5beta1, 100 to 10000 nM.

With `N=C(N)Nc1cc(NC(=O)CCCN)cc(C(=O)NCC(=O)NC[C@H](NC(=O)[C@@H]2CCCN2S(=O)(=O)c2ccccc2)C(=O)O)c1` [HIJ-1437, (S)-3-(2-(3-(4-aminobutanamido)-5-guanidinobenzamido)acetamido)-2-((S)-1-(phenylsulfonyl)pyrrolidine-2-carboxamido)propanoic acid], the IC50 against alpha5beta1 is < 100 nM.

Source of the values: patent US10836720B2, “Inhibitors of integrin alpha 5 beta 1 and methods of use” (The Regents of the University of California, priority 2016, dated 2020).
